Source: ChEMBL document CHEMBL5325391, “Spirolactone-type and enmein-type derivatives as potential anti-cancer agents derived from oridonin” (Bioorg Med Chem, 2022)

What was measured:
SMMC-7721 = assay: Antiproliferative activity against human SMMC-7721 cells assessed as reduction in cell growth after 72 hrs by MTT assay; type: functional, cell-based; settings: SMMC-7721, 72 h
MDA-MB-231 = assay: Antiproliferative activity against human MDA-MB-231 cells assessed as reduction in cell growth after 72 hrs by MTT assay; type: functional, cell-based; settings: MDA-MB-231, 72 h
SW480 = assay: Antiproliferative activity against human SW480 cells assessed as reduction in cell growth after 72 hrs by MTT assay; type: functional, cell-based; settings: SW480, 72 h
K562 [1] = assay: Antiproliferative activity against human K562 cells assessed as reduction in cell growth after 72 hrs by MTT assay; type: functional, cell-based; settings: K562, 72 h
[2] = Selectivity index, ratio of IC50 for human L02 cells to IC50 for human SMMC-7721 cells; type: toxicity; settings: L02 cells versus SMMC-7721 cells, read-out: Ratio IC50
[3] = Cytotoxicity against human L02 cells incubated for 72 hrs by MTT assay; type: toxicity, cell-based
K562 [4] = assay: Potency index, ratio of oridonin IC50 to compound IC50 for antiproliferative activity against human K562 cells after 72 hrs by MTT assay; type: functional

Structure (SMILES): C=C1C(=O)[C@@]23C(=O)O[C@H]4CCC(C)(C)[C@H]5C(=O)OC[C@]45[C@H]2CC[C@@H]1[C@H]3OC(=O)/C=C/c1ccncc1F
- IC50 (SMMC-7721): 990 nM
- IC50 (MDA-MB-231): 870 nM
- IC50 (SW480): 970 nM
- IC50 (K562 [1]): 680 nM

Structure (SMILES): C=C1C(=O)[C@]23[C@H](O)[C@H]1CC[C@H]2[C@@]12CO[C@]3(O)[C@@H](O)[C@@H]1C(C)(C)CC[C@@H]2O [ORIDONIN]
- IC50 (SMMC-7721): 14400 nM
- IC50 (SW480): 10600 nM
- IC50 (K562 [1]): 4250 nM
- selectivity ratio [2]: 1.74
- IC50 at 72 h [3]: 25000 nM

Structure (SMILES): C=C1C(=O)[C@@]23C(=O)O[C@H]4CCC(C)(C)[C@H]5C(=O)OC[C@]45[C@H]2CC[C@@H]1[C@H]3OC(=O)/C=C/c1cncnc1
- IC50 (SMMC-7721): 1980 nM
- IC50 (MDA-MB-231): 2170 nM
- IC50 (SW480): 1020 nM
- IC50 (K562 [1]): 930 nM

Structure (SMILES): C=C1C(=O)[C@@]23C(=O)OC[C@]4(C=CCC(C)(C)[C@H]4C=O)[C@@H]2CC[C@@H]1[C@H]3OC(=O)/C=C/c1ccncc1F
- IC50 (SMMC-7721): 620 nM
- IC50 (MDA-MB-231): 840 nM
- IC50 (SW480): 730 nM
- IC50 (K562 [1]): 540 nM

Structure (SMILES): C=C1C(=O)[C@@]23C(=O)OC[C@]4(C=CCC(C)(C)[C@H]4C=O)[C@@H]2CC[C@@H]1[C@H]3OC(=O)/C=C/c1cncnc1
- IC50 (SMMC-7721): 1980 nM
- IC50 (MDA-MB-231): 2260 nM
- IC50 (SW480): 980 nM
- IC50 (K562 [1]): 750 nM

Structure (SMILES): C=C1C(=O)[C@@]23C(=O)OC[C@]4(C=CCC(C)(C)[C@H]4C=O)[C@@H]2CC[C@@H]1[C@H]3OC(=O)/C=C/c1ccc2ccccc2n1
- IC50 (SMMC-7721): 3000 nM
- IC50 (MDA-MB-231): 5160 nM
- IC50 (SW480): 3350 nM
- IC50 (K562 [1]): 1230 nM

Structure (SMILES): C=C1C(=O)[C@@]23C(=O)OC[C@]4(C=CCC(C)(C)[C@H]4C=O)[C@@H]2CC[C@@H]1[C@H]3OC(=O)/C=C/c1ccco1
- IC50 (SMMC-7721): 2790 nM
- IC50 (MDA-MB-231): 2920 nM
- IC50 (SW480): 2280 nM
- IC50 (K562 [1]): 1820 nM

Structure (SMILES): C=C1C(=O)[C@@]23C(=O)OC[C@]4(C=CCC(C)(C)[C@H]4C=O)[C@@H]2CC[C@@H]1[C@H]3OC(=O)/C=C/c1ccccc1
- IC50 (SMMC-7721): 3150 nM
- IC50 (MDA-MB-231): 3230 nM
- IC50 (SW480): 3550 nM
- IC50 (K562 [1]): 1500 nM

Structure (SMILES): C=C1C(=O)[C@@]23C(=O)OC[C@]4(C=CCC(C)(C)[C@H]4C=O)[C@@H]2CC[C@@H]1[C@H]3OC(=O)/C=C/c1ccc2c(c1)OCO2
- IC50 (SMMC-7721): 3170 nM
- IC50 (MDA-MB-231): 3070 nM
- IC50 (SW480): 3490 nM
- IC50 (K562 [1]): 1850 nM

Structure (SMILES): C=C1C(=O)[C@@]23C(=O)OC[C@]4(C=CCC(C)(C)[C@H]4C=O)[C@@H]2CC[C@@H]1[C@H]3OC(=O)/C=C/c1ccc2ccccc2c1
- IC50 (SMMC-7721): 2200 nM
- IC50 (MDA-MB-231): 2430 nM
- IC50 (SW480): 3100 nM
- IC50 (K562 [1]): 1890 nM

Structure (SMILES): C=C1C(=O)[C@@]23C(=O)OC[C@]4(C=CCC(C)(C)[C@H]4C=O)[C@@H]2CC[C@@H]1[C@H]3O
- IC50 (SMMC-7721): 3740 nM
- IC50 (MDA-MB-231): 2860 nM
- IC50 (SW480): 2770 nM
- IC50 (K562 [1]): 1270 nM

Structure (SMILES): C=C1C(=O)[C@@]23C(=O)OC[C@]4(C=CCC(C)(C)[C@H]4C=O)[C@@H]2CC[C@@H]1[C@H]3OC(=O)/C=C/c1ccsc1
- IC50 (SMMC-7721): 3840 nM
- IC50 (MDA-MB-231): 3760 nM
- IC50 (SW480): 3270 nM
- IC50 (K562 [1]): 2440 nM

Structure (SMILES): C=C1C(=O)[C@@]23C(=O)OC[C@]4(C=CCC(C)(C)[C@H]4C=O)[C@@H]2CC[C@@H]1[C@H]3OC(=O)/C=C/c1ccnc(F)c1
- IC50 (SMMC-7721): 920 nM
- IC50 (MDA-MB-231): 790 nM
- IC50 (SW480): 1110 nM
- IC50 (K562 [1]): 750 nM

Structure (SMILES): C=C1C(=O)[C@@]23C(=O)OC[C@]4(C=CCC(C)(C)[C@H]4C=O)[C@@H]2CC[C@@H]1[C@H]3OC(=O)/C=C/c1ccccn1
- IC50 (SMMC-7721): 790 nM
- IC50 (MDA-MB-231): 1260 nM
- IC50 (SW480): 660 nM
- IC50 (K562 [1]): 560 nM

Structure (SMILES): C=C1C(=O)[C@@]23C(=O)OC[C@]4(C=CCC(C)(C)[C@H]4C=O)[C@@H]2CC[C@@H]1[C@H]3OC(=O)/C=C/c1ccnc(C)c1
- IC50 (SMMC-7721): 1020 nM
- IC50 (MDA-MB-231): 1480 nM
- IC50 (SW480): 1690 nM
- IC50 (K562 [1]): 980 nM

Structure (SMILES): C=C1C(=O)[C@@]23C(=O)O[C@H]4CCC(C)(C)[C@H]5C(=O)OC[C@]45[C@H]2CC[C@@H]1[C@H]3OC(=O)/C=C/c1ccnc(F)c1
- IC50 (SMMC-7721): 810 nM
- IC50 (MDA-MB-231): 760 nM
- IC50 (SW480): 780 nM
- IC50 (K562 [1]): 650 nM

Structure (SMILES): C=C1C(=O)[C@@]23C(=O)O[C@H]4CCC(C)(C)[C@H]5C(=O)OC[C@]45[C@H]2CC[C@@H]1[C@H]3O
- IC50 (SMMC-7721): 5670 nM
- IC50 (MDA-MB-231): 7620 nM
- IC50 (SW480): 6600 nM
- IC50 (K562 [1]): 5520 nM

Structure (SMILES): C=C1C(=O)[C@@]23C(=O)OC[C@]4(C=CCC(C)(C)[C@H]4C=O)[C@@H]2CC[C@@H]1[C@H]3OC(=O)/C=C/c1ccc[nH]1
- IC50 (SMMC-7721): 2990 nM
- IC50 (MDA-MB-231): 3990 nM
- IC50 (SW480): 2450 nM
- IC50 (K562 [1]): 1440 nM

Structure (SMILES): C=C1C(=O)[C@@]23C(=O)OC[C@]4(C=CCC(C)(C)[C@H]4C=O)[C@@H]2CC[C@@H]1[C@H]3OC(=O)/C=C/c1ccncc1OC
- IC50 (SMMC-7721): 800 nM
- IC50 (MDA-MB-231): 870 nM
- IC50 (SW480): 580 nM
- IC50 (K562 [1]): 420 nM

Structure (SMILES): C=C1C(=O)[C@@]23C(=O)OC[C@]4(C=CCC(C)(C)[C@H]4C=O)[C@@H]2CC[C@@H]1[C@H]3OC(=O)/C=C/C
- IC50 (SMMC-7721): 3810 nM
- IC50 (MDA-MB-231): 5120 nM
- IC50 (SW480): 3800 nM
- IC50 (K562 [1]): 1880 nM

Structure (SMILES): C=C1C(=O)[C@@]23C(=O)O[C@H]4CCC(C)(C)[C@H]5C(=O)OC[C@]45[C@H]2CC[C@@H]1[C@H]3OC(=O)/C=C/c1ccnc(OC)c1
- IC50 (SMMC-7721): 960 nM
- IC50 (MDA-MB-231): 830 nM
- IC50 (SW480): 940 nM
- IC50 (K562 [1]): 680 nM

Structure (SMILES): C=C1C(=O)[C@@]23C(=O)OC[C@]4(C=CCC(C)(C)[C@H]4C=O)[C@@H]2CC[C@@H]1[C@H]3OC(=O)/C=C/c1ccncc1
- IC50 (SMMC-7721): 1710 nM
- IC50 (MDA-MB-231): 750 nM
- Ratio IC50 (K562 [4]): 7
- IC50 (SW480): 820 nM
- IC50 (K562 [1]): 590 nM

Structure (SMILES): C=C1C(=O)[C@@]23C(=O)O[C@H]4CCC(C)(C)[C@H]5C(=O)OC[C@]45[C@H]2CC[C@@H]1[C@H]3OC(=O)/C=C/c1ccncc1C
- IC50 (SMMC-7721): 1080 nM
- IC50 (MDA-MB-231): 1080 nM
- IC50 (SW480): 760 nM
- IC50 (K562 [1]): 910 nM

Structure (SMILES): C=C1C(=O)[C@@]23C(=O)O[C@H]4CCC(C)(C)[C@H]5C(=O)OC[C@]45[C@H]2CC[C@@H]1[C@H]3OC(=O)/C=C/c1ccncc1
- IC50 (SMMC-7721): 840 nM
- IC50 (MDA-MB-231): 820 nM
- Ratio IC50 (K562 [4]): 8
- IC50 (SW480): 700 nM
- IC50 (K562 [1]): 550 nM
